Test [1] deals with human TLR7 (Homo sapiens (Human), UniProt Q9NYK1). The test is described as follows: HEK-Blue TLR7 reporter assay (TLR7 agonist activity). The note with it: HEK-Blue TLR7 cells, SEAP reporter, 18 h treatment; read-out: TLR7 Agonism (EC50). The class given is cell-based. As to the method:
This example describes a method for assaying TLR7 agonist activity of the compounds disclosed in this specification.
HEK-Blue™ TLR7 cells were added to each well of a 384-well tissue-culture plate (15,000 cells per well) and incubated 16-18 h at 37° C., 5% CO2. Compounds (100 nl) were dispensed into wells containing the HEK-Blue™ TLR cells and the treated cells were incubated at 37° C., 5% CO2. After 18 h treatment ten microliters of freshly-prepared Quanti-Blue™ reagent (Invivogen) was added to each well, incubated for 30 min (37° C., 5% CO2) and SEAP levels measured using an Envision plate reader (OD=620 nm).
(A reporter such as luciferase makes a cellular process visible.)

In test [2] the test system is interleukin 6 (IL-6). The test is described as follows: Interleukin 6 induction assay in human whole blood. The class given is cell-based. Particulars: 37° C., 20 h, AlphaLISA. As to the method: This example describes a method for assaying interleukin 6 induction by compounds disclosed in this specification.
Compounds diluted in DMSO were transferred to individual wells of a Matrix Technologies clear, V-bottom 384-well plate using ECHO acoustic liquid handling technology (25 nL per well). Human whole-blood samples (25 uL) were added to each well using a CyBio FeliX liquid handling instrument. The plate was shaken on a plate shaker for three min before incu-bating the reaction mixtures at 37° C. for 20 h. Basel RPMI 1640 medium (supplemented with L-glutamine) was then added to each well (25 uL per well) prior to liberating plasma from each sample by centrifugation (450×g, 5 min, ambient temperature). Treated plasma samples (3 uL) were subsequently transferred to individual wells of a white, shallow, 384-well ProxiPlate (Perkin Elmer) using the FeliX liquid handling instrument and their interleukin 6 levels were measured using AlphaLISA technology as described by the manufacturer, PerkinElmer. Data analyses software was used to determine compound EC50 values where the baseline was established using average DMSO values and 100% induction established using reference compound values at the highest concentration tested. EC50's can be determined with software such as Graphpad Prism™.
(Alpha assays give light when donor and acceptor beads are brought close together.)

The subject of test [3] is IFN-α. The note with it: fold lower potency vs corresponding purine-8-one compound; cited from earlier work.

The text below walks through data of patent US10457681B2, “Toll-like receptor 7 (TLR7) agonists having a tricyclic moiety, conjugates thereof, and methods and uses therefor” (BRISTOL-MYERS SQUIBB COMPANY, priority 2017, dated 2019).

Sequence of human TLR7 (Q9NYK1 27-1049): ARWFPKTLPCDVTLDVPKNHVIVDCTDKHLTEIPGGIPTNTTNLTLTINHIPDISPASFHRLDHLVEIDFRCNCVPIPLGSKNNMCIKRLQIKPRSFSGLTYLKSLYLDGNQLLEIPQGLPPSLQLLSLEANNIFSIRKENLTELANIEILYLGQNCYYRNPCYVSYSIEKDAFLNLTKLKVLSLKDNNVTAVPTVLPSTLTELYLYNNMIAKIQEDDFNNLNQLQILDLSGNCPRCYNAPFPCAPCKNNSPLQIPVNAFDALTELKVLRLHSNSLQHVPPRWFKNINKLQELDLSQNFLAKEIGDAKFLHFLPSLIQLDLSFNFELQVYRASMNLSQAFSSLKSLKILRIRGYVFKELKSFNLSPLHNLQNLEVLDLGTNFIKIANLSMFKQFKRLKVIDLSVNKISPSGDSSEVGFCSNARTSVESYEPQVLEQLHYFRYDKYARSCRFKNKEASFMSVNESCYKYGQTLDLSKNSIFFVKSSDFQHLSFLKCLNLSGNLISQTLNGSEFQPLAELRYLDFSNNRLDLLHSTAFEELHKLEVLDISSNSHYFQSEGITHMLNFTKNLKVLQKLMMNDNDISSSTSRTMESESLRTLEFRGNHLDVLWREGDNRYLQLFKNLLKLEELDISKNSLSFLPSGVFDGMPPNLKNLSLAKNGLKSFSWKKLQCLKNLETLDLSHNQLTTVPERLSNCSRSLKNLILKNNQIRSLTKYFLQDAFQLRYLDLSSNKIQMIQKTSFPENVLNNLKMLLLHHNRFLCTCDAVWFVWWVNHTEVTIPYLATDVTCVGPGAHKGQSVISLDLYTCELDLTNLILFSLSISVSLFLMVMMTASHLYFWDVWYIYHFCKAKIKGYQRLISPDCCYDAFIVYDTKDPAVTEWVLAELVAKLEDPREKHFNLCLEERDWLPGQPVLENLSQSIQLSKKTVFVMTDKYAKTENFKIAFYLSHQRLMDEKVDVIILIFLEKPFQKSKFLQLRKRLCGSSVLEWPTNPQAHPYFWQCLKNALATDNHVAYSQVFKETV

One may read the EC50 as the concentration needed to bring the measured effect to its halfway point. `CCCCOc1nc(N)c2nc(O)n(Cc3ccccc3)c2n1` [Compound B, reference compound]: in test [1], the 50% effective concentration (EC50) worked out at 474 nM.
For the compound `CCCCOc1nc(N)c2nc(O)n(Cc3ccc4c(c3)Sc3cc(CO)ccc3N4C)c2n1` [Ia-01], the EC50 worked out at 50 nM in test [1] and 250 nM in test [2].
For `CCCCOc1nc(N)c2nc(O)n(Cc3ccc4c(c3)Sc3cc(CNC(C)C)ccc3N4C)c2n1` [Ia-02], in that order: 4.7 nM and 4.9 nM.
As for `CCCCOc1nc(N)c2nc(O)n(Cc3ccc4c(c3)Sc3cc(CNCc5ccccc5)ccc3N4C)c2n1` [Ia-03], the half-maximal effective concentration (EC50) in test [1] is 8.5 nM; in test [2], 14.4 nM.
With `CCCCOc1nc(N)c2nc(O)n(Cc3ccc4c(c3)Sc3cc(CNC)ccc3N4C)c2n1` [Ia-04], the EC50 in test [1] stood at 39 nM; in test [2], 48 nM.
With `CCCCOc1nc(N)c2nc(O)n(Cc3ccc4c(c3)Sc3cc(CNC5COC5)ccc3N4C)c2n1` [Ia-05], the EC50 in test [1] stood at 580 nM.
On to `CCCCOc1nc(N)c2nc(O)n(Cc3ccc4c(c3)Sc3cc(CNC5CCC5)ccc3N4C)c2n1` [Ia-06], for which the results for the EC50 in test [1] and in test [2] were 93 nM and 750 nM, respectively.
Take `CCCCOc1nc(N)c2nc(O)n(Cc3ccc4c(c3)Sc3cc(CNCc5ccncc5)ccc3N4C)c2n1` [Ia-07]: the concentration for a half-maximal effect (EC50) in test [1] stood at 7.9 nM.
Turning to `CCCCOc1nc(N)c2c(n1)N(Cc1cccc(CN3CCCC3)c1)CC(=O)N2` [Vesatolimod, vesatolimod, reference compound], in test [3], the “potency less than that of the corresponding purine-8-one compound, as measured by IFN-α induction” value is 100 ×. Also, in test [1], the concentration for a half-maximal effect (EC50) was found to be 1200 nM.
